Source: US8012998B2, “Pyrrolidine aryl-ether as NK-3 receptor antagonists” (Hoffmann—LA Roche Inc., priority 2007, dated 2011)

Biological target: T1, human NK3 receptor (Homo sapiens, UniProt P29371)
T1 construct: expressed in transfected cells; host or cells: HEK293 cells (transient expression), membrane preparation
T1 sequence (P29371 1-465): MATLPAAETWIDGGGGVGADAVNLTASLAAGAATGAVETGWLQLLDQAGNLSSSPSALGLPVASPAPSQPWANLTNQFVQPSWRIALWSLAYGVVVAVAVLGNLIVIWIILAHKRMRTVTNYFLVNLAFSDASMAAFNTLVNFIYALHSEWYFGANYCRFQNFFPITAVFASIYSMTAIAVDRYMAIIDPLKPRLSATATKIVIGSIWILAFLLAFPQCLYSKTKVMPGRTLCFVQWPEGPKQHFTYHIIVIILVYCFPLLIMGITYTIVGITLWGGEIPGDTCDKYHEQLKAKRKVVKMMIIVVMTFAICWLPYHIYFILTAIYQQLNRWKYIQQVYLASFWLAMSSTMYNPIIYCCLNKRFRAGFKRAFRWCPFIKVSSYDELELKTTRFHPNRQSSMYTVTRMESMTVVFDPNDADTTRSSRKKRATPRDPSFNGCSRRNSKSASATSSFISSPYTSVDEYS
Test: [3H]SR142801 competition binding assay (hNK3 receptor binding)
Conditions: [3H]SR142801 radioligand; membranes from HEK293 cells transiently expressing recombinant human NK3 receptor; Ki by Cheng-Prussoff; read-out: KiNK3 h
Method in brief: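 Competition binding with [3H]SR142801 on membranes of HEK293 cells transiently expressing human NK3, 5 μg protein/well, in Tris-HCl/MnCl2/phosphoramidon/BSA buffer pH 7.4. Nonspecific binding defined with 10 μM SB222200; filtration then scintillation counting. IC50 from Hill fit was converted to Ki by Cheng-Prusoff; duplicate, mean ± SEM.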

With `Cc1ncc(C(=O)N2C[C@H]([C@H](CO)Oc3ccc(Cl)cn3)[C@@H](c3ccc(Cl)c(Cl)c3)C2)cn1` (racemic) [Example 87, [(3RS,4SR)-3-[(RS)-1-(5-Chloro-pyridin-2-yloxy)-2-hydroxy-ethyl]-4-(3,4-dichloro-phenyl)-pyrrolidin-1-yl]-(2-methyl-pyrimidin-5-yl)-methanone] the Ki was 56.2 nM.

`Cc1cc(C(=O)N2C[C@H]([C@H](C)Oc3ccc(C#N)cn3)[C@@H](c3ccc(Cl)c(Cl)c3)C2)cnn1` (racemic) [Example 89, 6-{(SR)-1-[(3RS,4SR)-4-(3,4-Dichloro-phenyl)-1-(6-methyl-pyridazine-4-carbonyl)-pyrrolidin-3-yl]-ethoxy}-nicotinonitrile] was tested, and the Ki was 9.1 nM.

With `Cc1ccnc(C(=O)N2C[C@H]([C@H](C)Oc3ccc(C#N)cn3)[C@@H](c3ccc(Cl)c(Cl)c3)C2)c1` (racemic) [Example 92, 6-{(SR)-1-[(3RS,4SR)-4-(3,4-Dichloro-phenyl)-1-(4-methyl-pyridine-2-carbonyl)-pyrrolidin-3-yl]-ethoxy}-nicotinonitrile] the Ki was 33.8 nM.

Work on `Cc1cccc(C(=O)N2C[C@H]([C@H](C)Oc3ccc(C#N)cn3)[C@@H](c3ccc(Cl)c(Cl)c3)C2)n1` (racemic) [Example 93, 6-{(SR)-1-[(3RS,4SR)-4-(3,4-Dichloro-phenyl)-1-(6-methyl-pyridine-2-carbonyl)-pyrrolidin-3-yl]-ethoxy}-nicotinonitrile] yielded a Ki of 64.6 nM.

`Cc1nccc(C(=O)N2C[C@H]([C@H](C)Oc3ccc(C#N)cn3)[C@@H](c3ccc(Cl)c(Cl)c3)C2)n1` (racemic) [Example 95, 6-{(SR)l-1[-(3RS,4SR)-4-(3,4-Dichloro-phenyl)-1-(2-methyl-pyrimidine-4-carbonyl)-pyrrolidin-3-yl]-ethoxy}-nicotinonitrile] showed a Ki of 52.4 nM.

`Cc1cnc(C(=O)N2C[C@H]([C@H](C)Oc3ccc(C#N)cn3)[C@@H](c3ccc(Cl)c(Cl)c3)C2)cn1` (racemic) [Example 97, 6-{(SR)-1-[(3RS,4SR)-4-(3,4-Dichloro-phenyl)-1-(5-methyl-pyrazine-2-carbonyl)-pyrrolidin-3-yl]-ethoxy}-nicotinonitrile] showed a Ki of 67.5 nM.

With `C[C@H](Oc1ccc(C#N)cn1)[C@H]1CN(C(=O)c2cnc(C(C)(C)C)nc2)C[C@@H]1c1ccc(Cl)c(Cl)c1` (racemic) [Example 98, 6-{(SR)-1-[(3RS,4SR)-1-(2-tert-Butyl-pyrimidine-5-carbonyl)-4-(3,4-dichloro-phenyl)-pyrrolidin-3-yl]-ethoxy}-nicotinonitrile] the Ki was 45.7 nM.

In the case of `C#Cc1ccc(O[C@@H](C)[C@H]2CN(C(=O)c3cnnc(C)c3)C[C@@H]2c2ccc(Cl)c(Cl)c2)nc1` (racemic) [Example 110, {(3SR,4RS)-3-(3,4-Dichloro-phenyl)-4-[(SR)-1-(5-ethynyl-pyridin-2-yloxy)-ethyl]-pyrrolidin-1-yl}-(6-methyl-pyridazin-4-yl)-methanone], the Ki is reported as 17.7 nM.

`Cc1cc(C(=O)N2C[C@H]([C@H](C)Oc3ccc(Cl)cn3)[C@@H](c3ccc(F)cc3F)C2)cnn1` (racemic) [Example 117, [(3RS,4SR)-3-[(SR)-1-(5-Chloro-pyridin-2-yloxy)-ethyl]-4-(2,4-difluoro-phenyl)-pyrrolidin-1-yl]-(6-methyl-pyridazin-4-yl)-methanone] gave a Ki of 27 nM.

With `Cc1ncc(C(=O)N2CC(c3ccc(Cl)c(Cl)c3)[C@@H]([C@H](C)Oc3ccc(Cl)cn3)C2)cn1` (single isomer, unassigned) [Example 40] the Ki was 6.8 nM.

`C[C@H](Oc1ccc(Cl)cn1)[C@H]1CN(C(=O)c2ccc(C#N)nc2)C[C@@H]1c1ccc(Cl)c(Cl)c1` (single isomer, unassigned) [Example 54] gave a Ki of 2 nM.

For `Cc1ncc(C(=O)N2CC(C(C)Oc3ccc(Cl)cn3)[C@H](c3ccc(Cl)c(Cl)c3)C2)cn1` (stereo in doubt) [Example 41, [(3S,4R)-3-[(R)-1-(5-Chloro-pyridin-2-yloxy)-ethyl]-4-(3,4-dichloro-phenyl)-pyrrolidin-1-yl]-(2-methyl-pyrimidin-5-yl)-methanone], the Ki was 66.4 nM.

For `C[C@@H](Oc1ccc(Cl)cn1)[C@@H]1CN(C(=O)c2ccc(CCN(C)C)cc2)C[C@H]1c1ccc(Cl)c(Cl)c1` [Example 44, [(3S,4R)-3-[(R)-1-(5-Chloro-pyridin-2-yloxy)-ethyl]-4-(3,4-dichloro-phenyl)-pyrrolidin-1-yl]-[4-(2-dimethylamino-ethyl)-phenyl]-methanone], the Ki was 11.8 nM.

`C[C@@H](Oc1ccc(Cl)cn1)[C@@H]1CN(C(=O)c2cnc(C#N)nc2)C[C@H]1c1ccc(Cl)c(Cl)c1` [Example 50, 5-[(3S,4R)-3-[(R)-1-(5-Chloro-pyridin-2-yloxy)-ethyl]-4-(3,4-dichloro-phenyl)-pyrrolidine-1-carbonyl]-pyrimidine-2-carbonitrile] was tested, and the Ki was 4.6 nM.

Molecule `C[C@H](Oc1ccc(C#N)cn1)[C@H]1CN(C(=O)c2cnc(C3CC3)nc2)C[C@@H]1c1ccc(Cl)c(Cl)c1` [Example 84, 6-{(S)-1[-(3R,4S)-1-(2-Cyclopropyl-pyrimidine-5-carbonyl)-4-(3,4-dichloro-phenyl)-pyrrolidin-3-yl]-ethoxy}-nicotinonitrile] has a Ki of 22 nM.

For `Cc1ncc(C(=O)N2C[C@H]([C@H](C)Oc3ccc(Cl)cn3)[C@@H](c3ccc(Cl)c(F)c3)C2)cn1` [Example 90, {(3S,4R)-3-(4-Chloro-3-fluoro-phenyl)-4-[(S)-1-(5-chloro-pyridin-2-yloxy)-ethyl]-pyrrolidin-1-yl}-(2-methyl-pyrimidin-5-yl)-methanone], the Ki was 11 nM.

Molecule `Cc1ncc(C(=O)N2C[C@H]([C@H](C)Oc3ccc(C#N)cn3)[C@@H](c3ccc(Cl)c(F)c3)C2)cn1` [Example 91, 6-{(S)-1-[(3R,4S)-4-(4-Chloro-3-fluoro-phenyl)-1-(2-methyl-pyrimidine-5-carbonyl)-pyrrolidin-3-yl]-ethoxy}-nicotinonitrile] has a Ki of 18.4 nM.

`Cc1ncc(C(=O)N2C[C@H]([C@H](C)Oc3ccc(Cl)cn3)[C@@H](c3ccc(F)c(Cl)c3)C2)cn1` [Example 101, {(3S,4R)-3-(3-Chloro-4-fluoro-phenyl)-4-[(S)-1-(5-chloro-pyridin-2-yloxy)-ethyl]-pyrrolidin-1-yl}-(2-methyl-pyrimidin-5-yl)-methanone] gave a Ki of 46 nM.

For `Cc1ncc(C(=O)N2C[C@H]([C@H](C)Oc3ccc(C#N)cn3)[C@@H](c3ccc(F)c(Cl)c3)C2)cn1` [Example 102, 6-{(S)-1-[(3R,4S)-4-(3-Chloro-4-fluoro-phenyl)-1-(2-methyl-pyrimidine-5-carbonyl)-pyrrolidin-3-yl]-ethoxy}-nicotinonitrile], the Ki was 91.4 nM.

For `Cc1ncc(C(=O)N2C[C@H]([C@H](C)Oc3ccc(Cl)cn3)[C@@H](c3ccc(F)c(F)c3)C2)cn1` [Example 103, [(3R,4S)-3-[(S)-1-(5-Chloro-pyridin-2-yloxy)-ethyl]-4-(3,4-difluoro-phenyl)-pyrrolidin-1-yl]-(2-methyl-pyrimidin-5-yl)-methanone], the Ki was 25.7 nM.

With `Cc1cc(C(=O)N2C[C@H]([C@H](C)Oc3ccc(Cl)cn3)[C@@H](c3ccc(F)c(F)c3)C2)cnn1` [Example 104, [(3R,4S)-3-[(S)-1-(5-Chloro-pyridin-2-yloxy)-ethyl]-4-(3,4-difluoro-phenyl)-pyrrolidin-1-yl]-(6-methyl-pyridazin-4-yl)-methanone] the Ki was 4 nM.

`Cc1cc(C(=O)N2C[C@H]([C@H](C)Oc3ccc(C#N)cn3)[C@@H](c3ccc(F)c(F)c3)C2)cnn1` [Example 106, 6-{(S)-1-[(3R,4S)-4-(3,4-Difluoro-phenyl)-1-(6-methyl-pyridazine-4-carbonyl)-pyrrolidin-3-yl]-ethoxy}-nicotinonitrile] showed a Ki of 30.9 nM.

Molecule `Cc1cc(C(=O)N2C[C@H]([C@H](C)Oc3ccc(Cl)cn3)[C@@H](c3ccc(Cl)c(F)c3)C2)cnn1` [Example 107, {(3S,4R)-3-(4-Chloro-3-fluoro-phenyl)-4-[(S)-1-(5-chloro-pyridin-2-yloxy)-ethyl]-pyrrolidin-1-yl}-(6-methyl-pyridazin-4-yl)-methanone] has a Ki of 2.6 nM.

Work on `Cc1cc(C(=O)N2C[C@H]([C@H](C)Oc3ccc(Cl)cn3)[C@@H](c3ccc(Cl)cc3)C2)cnn1` [Example 108, {(3S,4R)-3-(4-Chloro-phenyl)-4-[(S)-1-(5-chloro-pyridin-2-yloxy)-ethyl]-pyrrolidin-1-yl}-(6-methyl-pyridazin-4-yl)-methanone] yielded a Ki of 2.8 nM.

Molecule `Cc1ncc(C(=O)N2C[C@H]([C@H](C)Oc3ccc(Cl)cn3)[C@@H](c3ccc(Cl)cc3)C2)cn1` [Example 109, {(3S,4R)-3-(4-Chloro-phenyl)-4-[(S)-1-(5-chloro-pyridin-2-yloxy)-ethyl]-pyrrolidin-1-yl}-(2-methyl-pyrimidin-5-yl)-methanone] has a Ki of 24.1 nM.

For `Cc1cc(C(=O)N2C[C@H]([C@H](C)Oc3ccc(C#N)cn3)[C@@H](c3ccc(Cl)cc3)C2)cnn1` [Example 111, 6-{(S)-1-[(3R,4S)-4-(4-Chloro-phenyl)-1-(6-methyl-pyridazine-4-carbonyl)-pyrrolidin-3-yl]-ethoxy}-nicotinonitrile], the Ki was 3.7 nM.
